The values that follow are results of earlier work, collected in patent publication US7670620B2, “Topical composition for the treatment of psoriasis and related skin disorders” (Bioderm, Inc., priority 2000, dated 2010).

The subject of the data set is fibroblasts. The conditions noted are these: in vitro; Karzel and Domenjoz 1971.
Take `CC(=O)N[C@H]1C(O)O[C@H](CO)[C@H](O)[C@@H]1O` (stereo partly drawn) [N-acetylgalactosamine]: the “Secretion of mucopolysaccharides by fibroblasts” value (shortened to “Secretion of mucopolysaccharides”) is reported as “also worked, but to a lesser degree”. For the compound `CC(=O)N[C@H]1C(O)O[C@H](CO)[C@@H](O)[C@@H]1O` (stereo partly drawn) [N-acetylglucosamine], the “Secretion of mucopolysaccharides” value is recorded as “also worked, but to a lesser degree”. Take `N[C@H]1C(O)O[C@H](CO)[C@@H](O)[C@@H]1O` (stereo partly drawn) [glucosamine]: the “Secretion of mucopolysaccharides” value is “significantly increases secretion of mucopolysaccharides by fibroblasts”.
